What was measured:
Type in all cases: cell-based
[1] = biological target: T1, PPARδ (Homo sapiens, UniProt Q03181); experiment: PPAR-delta EC50, functional cell (transactivation) assay
T1 construct: expressed in transfected cells; host or cells: CV-1 cells
T1 sequence (Q03181 211-439 limits assumed): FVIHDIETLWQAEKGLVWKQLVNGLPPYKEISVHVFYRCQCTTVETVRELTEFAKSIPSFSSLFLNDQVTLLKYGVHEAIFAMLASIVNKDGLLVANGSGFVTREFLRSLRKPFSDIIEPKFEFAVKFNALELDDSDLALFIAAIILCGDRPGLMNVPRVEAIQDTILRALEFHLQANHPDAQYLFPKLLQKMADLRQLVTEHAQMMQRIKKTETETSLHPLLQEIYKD
Text: (§1) The following transfection assay methods are provided by way of example only. Compounds may be screened for functional potency in transient transfection assays in CV-1 cells for their ability to activate the PPAR subtypes (transactivation assay). A previously established chimeric receptor system was utilized to allow comparison of the relative transcriptional activity of the receptor subtypes on the same target gene and to prevent endogenous receptor activation from complicating the interpretation of results. See, for example, Lehmann, J. M.; Moore, L. B.; Smith-Oliver, T. A; Wilkinson, W. O.; Willson, T. M.; Kliewer, S. A., An antidiabetic thiazolidinedione is a high affinity ligand for peroxisome proliferator-activated receptor γ(PPARγ), J. Biol. Chem., 1995, 270, 12953-6. The ligand binding domains for murine and human PPAR-alpha, PPAR-gamma, and PPAR-delta are each fused to the yeast transcription factor GAL4 DNA binding domain. CV-1 cells were transiently transfected with expression vectors for the respective PPAR chimera along with a reporter construct containing five copies of the GAL4 DNA binding site driving expression of secreted placental alkaline phosphatase (SPAP) and p-galactosidase. After 16 h, the medium is exchanged to DME medium supplemented with 10% delipidated fetal calf serum and the test compound at the appropriate concentration. After an additional 24 h, cell extracts are prepared and assayed for alkaline phosphatase and pgalactosidase activity. Alkaline phosphatase activity was corrected for transfection efficiency using the p-galactosidase activity as an internal standard (see, for example, Kliewer, S. A., et. al. Cell 1995, 83, 813-819. Rosiglitazone is used as a positive control in the hPPARγ assay. The positive control in the hPPAR-alpha and hPPAR-delta assays was 2-[4-(2-(3-(4-fluorophenyl)-1heptylureido)ethyl)-phenoxy]-2-methylpropionic acid, which can be prepared as described in Brown, Peter J., et. al. Synthesis (7), 778-782 (1997), or patent publication WO 9736579.
(§2) Compounds of Examples 1-41 were assayed to measure their biological activity with respect to their EC50 values and efficacy for modulating PPAR-alpha, PPAR-gamma, and PPAR-delta as set forth in Table 2.

[2] = biological target: T2, PPARγ (Homo sapiens, UniProt P37231); experiment: PPAR-gamma EC50, functional cell (transactivation) assay
T2 construct: expressed in transfected cells; host or cells: CV-1 cells
T2 sequence (P37231 238-503 limits assumed): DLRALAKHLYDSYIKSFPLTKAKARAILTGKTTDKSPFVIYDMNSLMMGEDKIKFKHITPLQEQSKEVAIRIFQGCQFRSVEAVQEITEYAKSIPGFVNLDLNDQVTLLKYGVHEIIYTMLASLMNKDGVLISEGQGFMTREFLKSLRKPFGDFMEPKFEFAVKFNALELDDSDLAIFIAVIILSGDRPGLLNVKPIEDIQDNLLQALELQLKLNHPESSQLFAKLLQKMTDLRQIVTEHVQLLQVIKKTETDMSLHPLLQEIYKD
Text: as §1, §2

[3] = biological target: T3, PPARα (Homo sapiens, UniProt Q07869); experiment: PPAR-alpha EC50, functional cell (transactivation) assay
T3 construct: expressed in transfected cells; host or cells: CV-1 cells
T3 sequence (Q07869 239-466 limits assumed): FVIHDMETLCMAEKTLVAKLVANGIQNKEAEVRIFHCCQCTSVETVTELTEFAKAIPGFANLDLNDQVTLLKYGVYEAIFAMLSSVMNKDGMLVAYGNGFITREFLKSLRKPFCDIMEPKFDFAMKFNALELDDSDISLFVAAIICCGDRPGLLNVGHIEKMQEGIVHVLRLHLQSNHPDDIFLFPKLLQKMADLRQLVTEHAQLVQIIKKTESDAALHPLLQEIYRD
Text: as §1, §2

Row | SMILES | EC50 [1] [µM] | EC50 [2] [µM] | EC50 [3] [µM]
1 | Cc1cc(S(=O)(=O)N2CCN(c3ccccc3C#N)CC2)ccc1OC(C)(C)C(=O)O | 1 to 100 | 1 to 100 | > 100
2 | Cc1ccc(C)c(N2CCN(S(=O)(=O)c3ccc(OC(C)(C)C(=O)O)c(C)c3)CC2)c1 | 1 to 100 | 1 to 100 | > 100
3 | Cc1cccc(N2CCN(S(=O)(=O)c3ccc(OC(C)(C)C(=O)O)cc3)CC2C)c1 (stereo not drawn) | 1 to 100 | > 100 | > 100
4 | COc1ccccc1N1CCN(S(=O)(=O)c2ccc(OC(C)(C)C(=O)O)c(C)c2)CC1 | 1 to 100 | 1 to 100 | > 100
5 | Cc1cc(S(=O)(=O)N2CCN(c3ccc(Cl)cc3)CC2)ccc1OC(C)(C)C(=O)O | < 1 | 1 to 100 | > 100
6 | COc1ccc(N2CCN(S(=O)(=O)c3ccc(OC(C)(C)C(=O)O)c(C)c3)CC2)cc1OC | 1 to 100 | 1 to 100 | 1 to 100
7 | Cc1cc(S(=O)(=O)N2CCN(C(=O)c3ccco3)CC2)ccc1OC(C)(C)C(=O)O | 1 to 100 | > 100 | > 100
8 | Cc1cc(S(=O)(=O)N2CCN(c3ccc(C(C)(C)C)cc3)CC2)ccc1OC(C)(C)C(=O)O | 1 to 100 | 1 to 100 | > 100
9 | Cc1cc(S(=O)(=O)N2CCN(c3cccc(Cl)c3)CC2)ccc1OC(C)(C)C(=O)O | 1 to 100 | 1 to 100 | > 100
10 | Cc1cccc(N2CCN(S(=O)(=O)c3ccc(OC(C)(C)C(=O)O)c(C)c3)CC2C)c1 (stereo not drawn) | < 1 | 1 to 100 | > 100
11 | Cc1ccc(N2CCN(S(=O)(=O)c3ccc(OC(C)(C)C(=O)O)c(C)c3)CC2C)cc1C (stereo not drawn) | 1 to 100 | > 100 | > 100
12 | CC(C)(Oc1ccc(S(=O)(=O)N2CCN(c3ccccc3)CC2)cc1)C(=O)O | 1 to 100 | > 100 | > 100
13 | CC(C)(Oc1ccc(S(=O)(=O)N2CCN(c3ccc(Cl)c(Cl)c3)CC2)cc1)C(=O)O | 1 to 100 | 1 to 100 | 1 to 100
14 | Cc1ccc(N2CCN(S(=O)(=O)c3ccc(OC(C)(C)C(=O)O)cc3)CC2)c(C)c1 | 1 to 100 | > 100 | 1 to 100
15 | Cc1cc(S(=O)(=O)N2CCN(c3ccc(Cl)c(Cl)c3)CC2)ccc1OC(C)(C)C(=O)O | < 1 | 1 to 100 | 1 to 100
16 | CCc1cnc(N2CCN(S(=O)(=O)c3ccc(OC(C)(C)C(=O)O)cc3)CC2)nc1 | 1 to 100 | 1 to 100 | 1 to 100
17 | Cc1cc(S(=O)(=O)N2CCN(c3cccc(Br)c3)CC2)ccc1OC(C)(C)C(=O)O | < 1 | 1 to 100 | > 100
18 | Cc1cc(S(=O)(=O)N2CCN(c3ccc([N+](=O)[O-])cc3)CC2)ccc1OC(C)(C)C(=O)O | 1 to 100 | 1 to 100 | > 100
19 | Cc1cc(S(=O)(=O)N2CCN(c3ccc(F)cc3)CC2)ccc1OC(C)(C)C(=O)O | < 1 | 1 to 100 | > 100
20 | Cc1cc(S(=O)(=O)N2CCN(c3ccccc3Cl)CC2)ccc1OC(C)(C)C(=O)O | 1 to 100 | 1 to 100 | > 100
21 | Cc1cc(S(=O)(=O)N2CCN(C(c3ccccc3)c3ccc(Cl)cc3)CC2)ccc1OC(C)(C)C(=O)O (stereo not drawn) [drawing 127] | 1 to 100 | 1 to 100 | 1 to 100

— patent publication US20060258683A1, “Para-sulfonyl substituted phenyl compounds as modulators of ppars” (priority 2003, published 2006)
